Legend:
[1] = system: Arabidopsis thaliana plants (wild-type, yucca6-1D, yucca6-2D); assay: Resistance to the toxic Trp analog 5-methyl-Trp in MS medium; assay type: in vivo; details: MS medium containing 80 NM 5-methyl-Trp
Source text: It has been proposed that plants use […] and Trp-independent routes to synthesize auxin (Normanly et al., 1993; Müller and Weiler, 2000; Woodward and Bartel, 2005). To investigate in which pathway YUCCA6 may participate, we tested the resistance of yucca6-1D and yucca6-2D to the toxic Trp analog, 5-methyl-Trp.

YUCCA2 gene expression = YUCCA2 gene expression after ABA treatment (RT-PCR); assay type: in vivo, Arabidopsis thaliana; details: RNA from 2-week old seedlings including roots
Protocol: (§1) YUCCA gene expression was checked by RT-PCR. RNA was prepared from 2-week old seedlings including roots. […] UBC was used as a loading control.
(§2) Arabidopsis YUCCA6 is one of 11 yucca family members. YUCCA6 belongs to the same sub-family with YUCCA2. We determined if YUCCA6 gene expression is regulated by ABA.

YUCCA6 gene expression = YUCCA6 gene expression after hormone treatment (RT-PCR); assay type: in vivo, Arabidopsis thaliana; details: RNA from 2-week old seedlings including roots
Protocol: as §1, §2

YUCCA 1 gene expression = assay: YUCCA1 gene expression after ABA treatment (RT-PCR); assay type: in vivo, Arabidopsis thaliana; details: RNA from 2-week old seedlings including roots
Protocol: as §1, §2

[2] = biological target: T1, MBP:YUCCA6 fusion protein (Arabidopsis thaliana, UniProt Q8VZ59); assay: Recombinant YUCCA6 enzyme activity (substrate-dependent NADPH oxidation); assay type: biochemical; details: tryptamine as a substrate; 0.1 mM NADPH, pH 8.0, 22° C.
T1 construct: The full-length YUCCA6 ORF was synthesized from Col-0 cDNA by PCR amplification and subcloned into the expression vector pMAL-c2; made in house; host or cells: Escherichia coli BL21
T1 sequence (Q8VZ59 1-417): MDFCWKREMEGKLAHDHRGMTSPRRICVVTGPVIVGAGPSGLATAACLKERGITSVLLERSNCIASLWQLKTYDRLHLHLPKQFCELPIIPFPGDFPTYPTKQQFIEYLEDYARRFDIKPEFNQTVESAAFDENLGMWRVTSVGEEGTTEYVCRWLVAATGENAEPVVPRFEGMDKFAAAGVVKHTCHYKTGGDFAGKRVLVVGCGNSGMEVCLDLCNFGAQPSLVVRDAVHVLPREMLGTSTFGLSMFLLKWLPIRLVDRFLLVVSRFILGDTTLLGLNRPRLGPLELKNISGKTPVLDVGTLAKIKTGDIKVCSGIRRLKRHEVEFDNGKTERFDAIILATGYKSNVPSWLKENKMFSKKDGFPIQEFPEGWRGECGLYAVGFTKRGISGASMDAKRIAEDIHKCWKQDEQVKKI
Source text: (§3) It has been reported that maltose-binding protein (MBP):YUCCA1 fusion proteins have catalytic activity to convert tryptamine to N-hydroxyl tryptamine (Zhao et al., 2001). To investigate if YUCCA6 also is involved in oxidation of tryptamine, we tested YUCCA6 activity with MBP:YUCCA6 fusion protein expressed in and purified from bacteria. It is known that FMOs oxidize NADPH by transfer of electrons to oxygen. […] The catalytic activity of YUCCA6 for oxidation of tryptamine, together with resistance of yucca6 mutants to 5-methyl-Trp, strongly implies that YUCCA6 has an important function in Trp-dependent auxin biosynthesis.
(§4) The full-length YUCCA6 ORF was synthesized from Col-0 cDNA by PCR amplification and subcloned into the expression vector pMAL-c2. […] The protein contents were measured using BIO-RAD Protein Assay (no. 500-0006), and protein was separated by SDS-PAGE.
(§5) The activities of MBP:YUCCA6 and MBP proteins were measured by determining the rates of substrate-dependent NADPH oxidation consumption. […] The rates of NADPH oxidation caused by addition of tryptamine were monitored at 340 nm for 5 minutes at 22° C. using a UV-visible spectrophotometer (model UV-1601; Shimazu). The change in absorbance per minute was converted to micromoles NADPH consumed per minute using the extinction coefficient 6,220 M^−1 cm^−1 for NADPH. […]

[3] = substrate: NCCc1c[nH]c2ccccc12; assay: as above; assay type: biochemical, Arabidopsis thaliana; details: other: tryptamine as a substrate, 0.1 mM NADPH, pH 8.0, 22° C.
Source text: as §3, §4, §5

Cc1ccc2[nH]cc(C[C@H](N)C(=O)O)c2c1 [5-methyl-Trp]
survival and growth of wild-type plants ([1]; wild-type plants): could not | survival and growth of yucca6-1D plants ([1]; yucca6-1D): could survive and grow | survival and growth of yucca6-2D plants ([1]; yucca6-2D): could survive and grow

CC1=CC(=O)CC(C)(C)[C@@]1(O)/C=C/C(C)=C\C(=O)O [ABA, Abscisic Acid]
regulation of YUCCA2 gene expression (YUCCA2 gene expression): down-regulated | regulation of YUCCA6 transcript level (YUCCA6 gene expression): down-regulated | regulation of YUCCA 1 gene expression (YUCCA 1 gene expression): does not change

NC1(C(=O)O)CC1 [ACC, 1-aminocylopropane-1-carboxylic acid]
regulation of YUCCA6 transcript level (YUCCA6 gene expression): could not regulate

NCCc1c[nH]c2ccccc12 [tryptamine]
Vmax [2]: 9.46 Nmol NADPH min^−1 mg^−1

B1: MBP:YUCCA6 fusion protein (Arabidopsis thaliana) (protein)
chain: T1 sequence (Q8VZ59 1-417)
notes: The full-length YUCCA6 ORF was synthesized from Col-0 cDNA by PCR amplification and subcloned into the expression vector pMAL-c2; made in house; host or cells: Escherichia coli BL21
Km [3]: 274 µM
